According to US20250084036A1, “COMPOUND, ALDEHYDE DEHYDROGENASE 2 ACTIVATOR, PHARMACEUTICAL COMPOSITION, AND THERAPEUTIC AND/OR PROPHYLACTIC DRUG” (Alchemedicine, Inc., priority 2022, published 2025):

Experiments:
[1] = Test Example 2: Metabolic stability with mouse hepatic microsomes; type: in vitro ADME; conditions: after 30 minutes, 37° C., NADPH; further: tested at 0.99 µM
Method: Metabolic stability in mouse hepatic microsomes was evaluated with the following method.
• (1) Mouse hepatic microsomes: 20 mg/mL • (2) Test compound: 1.1 mM DMSO solution • (3) Potassium phosphate buffer solution: 66.7 mM (pH 7.4) • (4) NADPH solution: 10 mM in potassium phosphate buffer solution • (5) Quenching solution: 0.5% formic acid-acetonitrile solution with warfarin as internal standard substance
Into a propylene tube, 971.5 μL of the potassium phosphate buffer solution and 27.5 μL of the mouse hepatic microsomes were put, and suspended. Thereto, 1 μL of a test compound was added, and 180 μL was taken from this mixture and transferred into another tube. The mixture was preincubated at 37° C. for 5 minutes, and 20 μL of the NADPH solution (for the case with an incubation time of 30 minutes) or 20 μL of the potassium phosphate buffer solution (for the case with an incubation time of 0 minutes) was then added thereto. After incubation, 200 μL of the quenching solution was added to terminate the reaction. Subsequently, centrifugation was performed at 3220×g for 20 minutes, and the concentration of the unchanged form of the test compound in 200 μL of the supernatant was measured with LC-MS/MS. On the basis of the peak area obtained for the unchanged form, the residual rate (%) of the unchanged form was calculated as that for the case with an incubation time of 0 minutes was assumed as 100%.

[2] = Test Example 3: Metabolic stability with human hepatic microsomes; type: in vitro ADME; conditions: human hepatic microsomes 0.1 mg protein/mL, 0.1 μmol/L test compound, after 30 minutes, 37° C.
Method: For the compounds of Examples 1 to 9, which had been confirmed to have stability in the mouse hepatic microsome test, metabolic stability with human hepatic microsomes was measured. The specific method is as follows. • (1) Fifty microliter-portions were taken from 0.2 μmol/L test compound diluted with β-NADPH solution. • (2) Fifty microliters of 0.2 mg protein/mL human hepatic microsome solution was added to each (except for a sample with a reaction time of 0 minutes). • (3) Incubation was performed with shaking at 37° C. for 30 minutes (concentration in reaction sample: 0.1 μmol/L test compound, 0.1 mg protein/mL human hepatic microsome) • (4) After incubation, 400 μL of methanol was added to terminate the reaction. • (5) To the sample with a reaction time of 0 minutes, 50 μL of 0.2 mg protein/mL hepatic microsome solution was added. • (6) Each of the samples from (4) and (5) was left to stand at −20° C. for 30 minutes or longer, and then centrifuged at 4° C. and 3,000 rpm for approximately 10 minutes. • (7) The supernatant was subjected to measurement with LC/MS/MS, and, on the basis of the peak area obtained for the unchanged form, the residual rate (%) of the unchanged form was calculated as that for the case with an incubation time of 0 minutes was assumed as 100%.

[3] = target: T1, human recombinant ALDH2 enzyme (Homo sapiens, UniProt P05091); test: Test Example 1-2: ALDH2 activation effect (acetaldehyde oxidation rate, PicoProbe kit); type: biochemical; conditions: ALDH2 1 μg/mL, 60 min measurement
T1 construct: purchased Abcam ab87415
T1 sequence (P05091 18-517): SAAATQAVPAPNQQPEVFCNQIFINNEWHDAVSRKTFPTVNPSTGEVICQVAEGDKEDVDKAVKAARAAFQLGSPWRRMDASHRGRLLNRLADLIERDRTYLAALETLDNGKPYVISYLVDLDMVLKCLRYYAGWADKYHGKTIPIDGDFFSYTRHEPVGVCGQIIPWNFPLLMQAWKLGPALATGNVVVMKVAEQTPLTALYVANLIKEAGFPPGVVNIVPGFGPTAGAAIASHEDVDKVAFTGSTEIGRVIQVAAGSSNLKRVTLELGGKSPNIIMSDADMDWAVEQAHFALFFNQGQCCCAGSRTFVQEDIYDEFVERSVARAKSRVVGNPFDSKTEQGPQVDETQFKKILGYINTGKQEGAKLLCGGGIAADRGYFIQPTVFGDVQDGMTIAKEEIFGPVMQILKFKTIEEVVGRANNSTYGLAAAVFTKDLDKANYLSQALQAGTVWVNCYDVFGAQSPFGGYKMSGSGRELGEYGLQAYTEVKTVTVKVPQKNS
Method: (§1) The activation effect of each test compound on the acetaldehyde oxidation rate of ALDH2 was measured with the following method. A test was conducted by using a commercially available PicoProbe™ Aldehyde dehydrogenase Activity Assay Kit (manufactured by Abcam) with reference to an instruction attached to the product under the following conditions. To each well of a 384-well plate, the following (1) to (3) were sequentially added with a pipette: • (1) 10 μL of solution obtained by dissolving and diluting a human recombinant ALDH2 enzyme (manufactured by Abcam, product number: ab87415) with ALDH assay Buffer (final concentration: 1 μg/mL); • (2) 10 μL of 30 μM or 90 μM test compound solution (with 3% DMSO) prepared by using ALDH assay Buffer; and • (3) 10 μL of Reaction mix composed with ratio of 7.3 μL of ALDH assay Buffer, 0.6 μL of PicoProbe, 0.6 μL of Substrate Mix, and 1.5 μL of Acetaldehyde.
Before addition of (3), incubation was performed at room temperature for 5 minutes. After addition of (3), fluorescence intensity was measured at room temperature every 2.5 minutes over a period of 60 minutes by using an EnVision (manufactured by PerkinElmer Inc.) to determine the oxidation rate. Wavelengths of 535 nm and 587 nm were used for fluorescence intensities of excitation and emission, respectively.

[4] = target: T1, human recombinant ALDH2 enzyme; test: Test Example 1-1: ALDH2 activation effect (acetaldehyde oxidation rate, PicoProbe kit); type: biochemical; conditions: ALDH2 2 μg/mL, 180 min measurement
Method: as §1, with “by BioVision Inc.)” for “by Abcam)”, “concentration: 2” for “concentration: 1”, “of […]” for “of 7.3”, “PicoProbe, 0.3” for “PicoProbe, 0.6”
Before addition of (3), incubation was performed at room temperature for 5 minutes. After addition of (3), fluorescence intensity was measured at room temperature every 2.5 minutes over a period of 180 minutes by using an EnSight (manufactured by PerkinElmer Inc.) to determine the oxidation rate. Wavelengths of 535 nm and 587 nm were used for fluorescence intensities of excitation and emission, respectively.

Residual rate (%) of unchanged form [1] [%] | Residual rate (%) of unchanged form [2] [%] | acetaldehyde oxidation rate (no test compound = 100%) ([3]; test compound 10 μM) [%] | acetaldehyde oxidation rate (no test compound = 100%) ([3]; test compound 30 μM) [%] | acetaldehyde oxidation rate (no test compound = 100%) ([4]; test compound 10 μM) [%] | acetaldehyde oxidation rate (no test compound = 100%) ([4]; test compound 30 μM) [%] | Compound
93 | >99 | 133 | 155 |  |  | COc1ncc(CNC(=O)c2cc(-c3ncccc3[C@@H](C)O)ccc2F)cc1F (single isomer, unassigned) [Example 4, 2-fluoro-N-((5-fluoro-6-methoxypyridin-3-yl)methyl)-5-(3-(1-hydroxyethyl)pyridin-2-yl)benzamide]
95 | 92 | 122 | 170 |  |  | COc1ncc(CNC(=O)c2cc(-c3ncccc3[C@@H](C)O)ccc2F)cc1F (single isomer, unassigned) [Example 5, 2-fluoro-N-((5-fluoro-6-methoxypyridin-3-yl)methyl)-5-(3-(1-hydroxyethyl)pyridin-2-yl)benzamide]
<1 |  | 220 | 275 | 199 | 225 | O=C(NCc1ccc2c(c1)OCO2)c1c(Cl)cccc1Cl [Comparative Example 1, reference compound]
6 |  |  |  |  |  | COc1ccc(CNC(=O)c2cc(-c3ncccc3CO)ccc2OCC2CC2)cc1F [Comparative Example 2, reference compound]
1 |  |  |  |  |  | COCc1ccc(CNC(=O)c2c(Cl)cccc2Cl)cc1F [Comparative Example 3, reference compound]
<1 |  |  |  |  |  | COCc1ccc(CNC(=O)c2c(Cl)cccc2Br)cc1F [Comparative Example 4, reference compound]
<1 |  |  |  |  |  | COCc1ccc(CNC(=O)c2c(F)cccc2Cl)cc1F [Comparative Example 5, reference compound]
1 |  |  |  |  |  | COCc1ccc(CNC(=O)c2c(F)cccc2F)cc1F [Comparative Example 6, reference compound]
91 | 96 |  |  | 123 | 130 | COCc1ccc(CNC(=O)c2cc(-c3ncccc3CO)ccc2F)cn1 [Example 1, 2-Fluoro-5-(3-(hydroxymethyl)pyridin-2-yl)-N-((6-(methoxymethyl)pyridin-3-yl)methyl)benzamide]
89 | >99 |  |  | 150 | 180 | COc1ccc(CNC(=O)c2cc(-c3ncccc3CO)ccc2F)cn1 [Example 2, 2-Fluoro-5-(3-(hydroxymethyl)pyridin-2-yl)-N-((6-methoxypyridin-3-yl)methyl)benzamide]
>99 | 47 | 125 | 139 |  |  | O=C(NCc1ccc(OC(F)F)nc1)c1cc(-c2ncccc2CO)ccc1F [Example 6, N-((6-(Difluoromethoxy)pyridin-3-yl)methyl)-2-fluoro-5-(3-(hydroxymethyl)pyridin-2-yl)benzamide]
96 | 89 | 331 | 415 |  |  | CCOc1ncc(CNC(=O)c2cc(-c3ncccc3CO)ccc2F)cc1F [Example 7, N-((6-Ethoxy-5-fluoropyridin-3-yl)methyl)-2-fluoro-5-(3-(hydroxymethyl)pyridin-2-yl)benzamide]
90 | >99 | 154 | 224 |  |  | CC(C)Oc1ncc(CNC(=O)c2cc(-c3ncccc3CO)ccc2F)cc1F [Example 8, 2-Fluoro-N-((5-fluoro-6-isopropoxypyridin-3-yl)methyl)-5-(3-(hydroxymethyl)pyridin-2-yl)benzamide]
92 | 93 | 182 | 283 |  |  | O=C(NCc1cnc(OC2CC2)c(F)c1)c1cc(-c2ncccc2CO)ccc1F [Example 9, N-((6-Cyclopropoxy-5-fluoropyridin-3-yl)methyl)-2-fluoro-5-(3-(hydroxymethyl)pyridin-2-yl)benzamide]
